In this experiment the target is cloned human NR1/NR2B ion channels (Homo sapiens (Human), UniProt Q05586+Q13224). The experiment in a line: HNR2BC: effects of test articles on cloned human NR1/NR2B ion channels expressed in mammalian cells (FLIPR calcium flux). Particulars: cloned human NR1/NR2B ion channels, Table 5. The class given is cell-based. In outline:
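Compounds were added to dye-loaded cells for 5 min with fluorescence monitored for agonism, followed by co-agonists (glutamate ~EC80, glycine 10 μM saturating) for 5 min. Cells stably expressed inducible human NR1/NR2B, and the buffer was pH 7.4. The FLIPR Ca2+ flux signal was normalized against control wells.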
Sequence of cloned human NR1/NR2B ion channels (Q13224 27-1484, other chains not shown): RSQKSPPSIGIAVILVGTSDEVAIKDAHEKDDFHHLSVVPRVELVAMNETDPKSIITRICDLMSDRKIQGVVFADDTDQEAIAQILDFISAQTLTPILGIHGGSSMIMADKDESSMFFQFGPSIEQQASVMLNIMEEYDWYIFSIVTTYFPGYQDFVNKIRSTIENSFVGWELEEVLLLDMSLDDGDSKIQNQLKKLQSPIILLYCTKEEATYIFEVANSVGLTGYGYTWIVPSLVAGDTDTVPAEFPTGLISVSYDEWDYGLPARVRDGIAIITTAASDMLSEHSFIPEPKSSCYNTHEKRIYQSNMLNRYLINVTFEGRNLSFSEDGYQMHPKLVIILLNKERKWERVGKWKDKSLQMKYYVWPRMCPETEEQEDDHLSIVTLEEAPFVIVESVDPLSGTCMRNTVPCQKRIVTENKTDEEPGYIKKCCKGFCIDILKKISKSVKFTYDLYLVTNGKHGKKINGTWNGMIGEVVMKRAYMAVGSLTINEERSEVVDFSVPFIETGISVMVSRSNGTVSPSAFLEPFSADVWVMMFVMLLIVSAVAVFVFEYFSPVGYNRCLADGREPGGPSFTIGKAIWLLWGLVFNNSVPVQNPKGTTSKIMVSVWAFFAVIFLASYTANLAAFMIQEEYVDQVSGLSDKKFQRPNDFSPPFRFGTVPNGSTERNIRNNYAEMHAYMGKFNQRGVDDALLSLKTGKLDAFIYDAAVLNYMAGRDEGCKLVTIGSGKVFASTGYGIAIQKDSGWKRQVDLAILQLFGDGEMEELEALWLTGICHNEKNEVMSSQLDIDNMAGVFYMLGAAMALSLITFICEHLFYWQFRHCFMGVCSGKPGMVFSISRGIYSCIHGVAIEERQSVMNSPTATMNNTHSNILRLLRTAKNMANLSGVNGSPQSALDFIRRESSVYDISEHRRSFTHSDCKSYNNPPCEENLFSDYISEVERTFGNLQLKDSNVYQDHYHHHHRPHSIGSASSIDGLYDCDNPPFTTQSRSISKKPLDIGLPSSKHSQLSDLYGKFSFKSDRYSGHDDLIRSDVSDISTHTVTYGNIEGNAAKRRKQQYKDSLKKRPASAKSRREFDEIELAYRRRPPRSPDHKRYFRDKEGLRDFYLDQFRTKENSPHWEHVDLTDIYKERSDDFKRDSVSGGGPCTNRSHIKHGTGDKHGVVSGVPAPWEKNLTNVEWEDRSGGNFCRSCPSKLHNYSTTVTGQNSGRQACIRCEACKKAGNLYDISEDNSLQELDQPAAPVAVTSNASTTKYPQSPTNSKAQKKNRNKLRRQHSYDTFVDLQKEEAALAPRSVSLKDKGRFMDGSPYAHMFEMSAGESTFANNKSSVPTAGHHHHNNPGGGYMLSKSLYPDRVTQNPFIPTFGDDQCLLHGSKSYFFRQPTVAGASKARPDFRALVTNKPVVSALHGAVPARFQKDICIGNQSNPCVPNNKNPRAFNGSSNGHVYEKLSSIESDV
For `CN(C)C(=O)Cn1cc(Cl)c2ncc(-c3ccc(F)c(C(F)(F)F)c3)cc21` [Example 516, 2-[3-Chloro-6-[4-fluoro-3-(trifluoromethyl)phenyl]pyrrolo[3,2-b]pyridin-1-yl]-N,N-dimethyl-acetamide], the IC50 is 200 nM.

Regarding `CN(C)C(=O)Cn1cc(Cl)c2ncc(-c3cccc(C(F)(F)F)c3F)cc21` [Example 517, 2-[3-Chloro-6-[2-fluoro-3-(trifluoromethyl)phenyl]pyrrolo[3,2-b]pyridin-1-yl]-N,N-dimethyl-acetamide], the half-inhibitory concentration (IC50) is 100 nM.

As to `CN(C)C(=O)Cn1cc(Cl)c2ncc(-c3ccc(F)c(F)c3F)cc21` [Example 518, 2-[3-Chloro-6-(2,3,4-trifluorophenyl)pyrrolo[3,2-b]pyridin-1-yl]-N,N-dimethyl-acetamide], the IC50 was 63.1 nM.

As to `Cc1c(F)ccc(-c2cnc3c(Cl)cn(CC(=O)N(C)C)c3c2)c1F` [Example 519, 2-[3-Chloro-6-(2,4-difluoro-3-methyl-phenyl)pyrrolo[3,2-b]pyridin-1-yl]-N,N-dimethyl-acetamide], the concentration for half-maximal inhibition (IC50) was 63.1 nM.

As for `CN(C)C(=O)Cn1cc(Cl)c2ncc(-c3ccc(F)c(Cl)c3)cc21` [Example 520, 2-[3-Chloro-6-(3-chloro-4-fluoro-phenyl)pyrrolo[3,2-b]pyridin-1-yl]-N,N-dimethyl-acetamide], the IC50 is 79.4 nM.

Take `O=C(Cn1cc(Cl)c2ncc(-c3ccccc3F)cc21)N1CCC1` [Example 521, 1-(Azetidin-1-yl)-2-[3-chloro-6-(2-fluorophenyl)pyrrolo[3,2-b]pyridin-1-yl]ethanone]: the IC50 was 126 nM.

Consider `Cc1cccc(-c2cnc3c(Cl)cn(CC(=O)N4CCC4)c3c2)c1F` [Example 522, 1-(Azetidin-1-yl)-2-[3-chloro-6-(2-fluoro-3-methyl-phenyl)pyrrolo[3,2-b]pyridin-1-yl]ethanone], for which the IC50 was 79.4 nM.

With `O=C(Cn1cc(Cl)c2ncc(-c3ccc(F)c(C(F)(F)F)c3)cc21)N1CCC1` [Example 523, 1-(Azetidin-1-yl)-2-[3-chloro-6-[4-fluoro-3-(trifluoromethyl)phenyl]pyrrolo[3,2-b]pyridin-1-yl]ethanone], the half-inhibitory concentration (IC50) is 158 nM.

In the case of `O=C(Cn1cc(Cl)c2ncc(-c3cccc(C(F)(F)F)c3F)cc21)N1CCC1` [Example 524, 1-(Azetidin-1-yl)-2-[3-chloro-6-[2-fluoro-3-(trifluoromethyl)phenyl]pyrrolo[3,2-b]pyridin-1-yl]ethanone], the IC50 was 79.4 nM.

On to `Cc1c(F)ccc(-c2cnc3c(Cl)cn(CC(=O)N4CCC4)c3c2)c1F` [Example 525, 1-(Azetidin-1-yl)-2-[3-chloro-6-(2,4-difluoro-3-methyl-phenyl)pyrrolo[3,2-b]pyridin-1-yl]ethanone], for which the 50% inhibitory concentration (IC50) is 50.1 nM.

On to `O=C(Cn1cc(Cl)c2ncc(-c3cccc(Cl)c3)cc21)N1CCC1` [Example 526, 1-(Azetidin-1-yl)-2-[3-chloro-6-(3-chlorophenyl)pyrrolo[3,2-b]pyridin-1-yl]ethanone], for which the IC50 is 63.1 nM.

For `O=C(Cn1cc(Cl)c2ncc(-c3ccc(F)c(Cl)c3)cc21)N1CCC1` [Example 527, 1-(Azetidin-1-yl)-2-[3-chloro-6-(3-chloro-4-fluoro-phenyl)pyrrolo[3,2-b]pyridin-1-yl]ethanone], the IC50 is 50.1 nM.

With `O=C(Cn1cc(Cl)c2ncc(-c3cccc(Cl)c3F)cc21)N1CCC1` [Example 528, 1-(Azetidin-1-yl)-2-[3-chloro-6-(3-chloro-2-fluoro-phenyl)pyrrolo[3,2-b]pyridin-1-yl]ethanone], the IC50 is 39.8 nM.

In the case of `O=C(Cn1cc(Cl)c2ncc(-c3cccc(C(F)F)c3)cc21)N1CCC1` [Example 529, 1-(Azetidin-1-yl)-2-[3-chloro-6-[3-(difluoromethyl)phenyl]pyrrolo[3,2-b]pyridin-1-yl]ethanone], the IC50 was 79.4 nM.

With `O=C(Cn1cc(Cl)c2ncc(-c3cccc(F)c3)cc21)N1CCC1` [Example 530, 1-(Azetidin-1-yl)-2-[3-chloro-6-(3-fluorophenyl)pyrrolo[3,2-b]pyridin-1-yl]ethanone], the IC50 was 39.8 nM.
